Test results: PubChem BioAssay (NCI)
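GI50 marks 50% less growth. TGI marks complete inhibition of growth.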

Experiments:
Assay in all cases: NCI-60 cell line screen, 384-well format
SF-539 CNS = tested on: SF-539 CNS
SF-295 CNS = tested on: SF-295 CNS
SK-OV-3 ovarian = tested on: SK-OV-3 ovarian
HOP-92 NSCLC = tested on: HOP-92 NSCLC
TK-10 renal = tested on: TK-10 renal
SW-620 colon = tested on: SW-620 colon
HOP-62 NSCLC = tested on: HOP-62 NSCLC
SK-MEL-28 melanoma = tested on: SK-MEL-28 melanoma
786-0 renal = tested on: 786-0 renal
KM12 colon = tested on: KM12 colon
ACHN renal = tested on: ACHN renal
M14 melanoma = tested on: M14 melanoma
UACC-62 melanoma = tested on: UACC-62 melanoma
OVCAR-3 ovarian = tested on: OVCAR-3 ovarian
MALME-3M melanoma = tested on: MALME-3M melanoma
SNB-19 CNS = tested on: SNB-19 CNS
DU-145 prostate = tested on: DU-145 prostate
HL-60(TB) leukemia = tested on: HL-60(TB) leukemia
A498 renal = tested on: A498 renal
NCI-H522 lung = tested on: NCI-H522 lung
SN12C renal = tested on: SN12C renal
MOLT-4 leukemia = tested on: MOLT-4 leukemia
PC-3 prostate = tested on: PC-3 prostate
HT29 colon = tested on: HT29 colon
U251 glioblastoma = tested on: U251 glioblastoma
MDA-MB-435 melanoma = tested on: MDA-MB-435 melanoma
HS 578T breast = tested on: HS 578T breast
SK-MEL-5 melanoma = tested on: SK-MEL-5 melanoma
CCRF-CEM leukemia = tested on: CCRF-CEM leukemia
SF-268 CNS = tested on: SF-268 CNS
MCF7 breast = tested on: MCF7 breast
SK-MEL-2 melanoma = tested on: SK-MEL-2 melanoma
NCI-H226 lung = tested on: NCI-H226 lung
COLO 205 colon = tested on: COLO 205 colon
OVCAR-8 ovarian = tested on: OVCAR-8 ovarian
NCI-H460 NSCLC = tested on: NCI-H460 NSCLC
EKVX NSCLC = tested on: EKVX NSCLC
NCI-H23 lung = tested on: NCI-H23 lung
MDA-MB-468 breast = tested on: MDA-MB-468 breast
HCT-116 colon = tested on: HCT-116 colon
LOX IMVI melanoma = tested on: LOX IMVI melanoma
K-562 leukemia = tested on: K-562 leukemia
HCT-15 colon = tested on: HCT-15 colon
RXF 393 renal = tested on: RXF 393 renal
NCI/ADR-RES ovarian = tested on: NCI/ADR-RES ovarian
RPMI-8226 leukemia = tested on: RPMI-8226 leukemia
BT-549 breast = tested on: BT-549 breast
A549 NSCLC = tested on: A549 NSCLC
IGROV1 ovarian = tested on: IGROV1 ovarian
OVCAR-4 ovarian = tested on: OVCAR-4 ovarian
NCI-H322M lung = tested on: NCI-H322M lung
UACC-257 melanoma = tested on: UACC-257 melanoma
SNB-75 CNS = tested on: SNB-75 CNS
CAKI-1 renal = tested on: CAKI-1 renal

CCCOC(=O)c1nc(N(CC2CCCCC2)C(=O)NC)sc1/N=C/c1ccccc1 was tested, and the GI50 (SF-539 CNS) was 4.85 µM, the TGI (SF-539 CNS) was 16.6 µM and the GI50 (SF-295 CNS) was 2.16 µM. The TGI (SF-295 CNS) was 5.51 µM, the GI50 (SK-OV-3 ovarian) was 3.49 µM and the TGI (SK-OV-3 ovarian) was 14.7 µM. For the same compound, the GI50 (HOP-92 NSCLC) was 4.36 µM, the TGI (HOP-92 NSCLC) was 14.6 µM and the GI50 (TK-10 renal) was 8.53 µM. It also gave a TGI (TK-10 renal) of 21.8 µM, a GI50 (SW-620 colon) of 3.5 µM and a TGI (SW-620 colon) of 13.5 µM. The GI50 (HOP-62 NSCLC) was 2.45 µM, the TGI (HOP-62 NSCLC) was 7.26 µM and the GI50 (SK-MEL-28 melanoma) was 5.74 µM. It also gave a TGI (SK-MEL-28 melanoma) of 16.9 µM, a GI50 ([…]-0 renal) of 6.22 µM and a TGI (786-0 renal) of 18.7 µM. It also gave a GI50 (KM12 colon) of 3.26 µM, a TGI (KM12 colon) of 11.8 µM and a GI50 (ACHN renal) of 9.87 µM. The TGI (ACHN renal) was 21.9 µM, the GI50 (M14 melanoma) was 3.46 µM and the TGI (M14 melanoma) was 10.9 µM. For the same compound, the GI50 (UACC-62 melanoma) was 3.48 µM, the TGI (UACC-62 melanoma) was 14 µM and the GI50 (OVCAR-3 ovarian) was 2.01 µM. For the same compound, the TGI (OVCAR-3 ovarian) was 4.27 µM, the GI50 (MALME-3M melanoma) was 3.51 µM and the TGI (MALME-3M melanoma) was 9.53 µM. For the same compound, the GI50 (SNB-19 CNS) was 5.73 µM, the TGI (SNB-19 CNS) was 17.4 µM and the GI50 (DU-145 prostate) was 12.3 µM. It also gave a TGI (DU-145 prostate) of 27.5 µM, a GI50 (HL-60(TB) leukemia) of 1.73 µM and a TGI (HL-60(TB) leukemia) of 3.11 µM. It also gave a GI50 (A498 renal) of 4.1 µM, a TGI (A498 renal) of 14.7 µM and a GI50 (NCI-H522 lung) of 1.8 µM. The TGI (NCI-H522 lung) was 5.05 µM, the GI50 (SN12C renal) was 6.86 µM and the TGI (SN12C renal) was 19.6 µM. It also gave a GI50 (MOLT-4 leukemia) of 1.76 µM, a TGI (MOLT-4 leukemia) of 3.2 µM and a GI50 (PC-3 prostate) of 3.58 µM. The TGI (PC-3 prostate) was 12.8 µM, the GI50 (HT29 colon) was 2.58 µM and the TGI (HT29 colon) was 6.98 µM. The GI50 (U251 glioblastoma) was 7.26 µM, the TGI (U251 glioblastoma) was 21.2 µM and the GI50 (MDA-MB-435 melanoma) was 1.79 µM. For the same compound, the TGI (MDA-MB-435 melanoma) was 4.03 µM, the GI50 (HS 578T breast) was 2.22 µM and the TGI (HS 578T breast) was 5.66 µM. It also gave a GI50 (SK-MEL-5 melanoma) of 2.43 µM, a TGI (SK-MEL-5 melanoma) of 11.3 µM and a GI50 (CCRF-CEM leukemia) of 2.03 µM. For the same compound, the TGI (CCRF-CEM leukemia) was 3.76 µM, the GI50 (SF-268 CNS) was 5.35 µM and the TGI (SF-268 CNS) was 15.5 µM. The GI50 (MCF7 breast) was 2.66 µM, the TGI (MCF7 breast) was 7.98 µM and the GI50 (SK-MEL-2 melanoma) was 2.34 µM. For the same compound, the TGI (SK-MEL-2 melanoma) was 4.27 µM, the GI50 (NCI-H226 lung) was 5.1 µM and the TGI (NCI-H226 lung) was 18.1 µM. It also gave a GI50 (COLO 205 colon) of 4.56 µM, a TGI (COLO 205 colon) of 16.1 µM and a GI50 (OVCAR-8 ovarian) of 10.7 µM. For the same compound, the TGI (OVCAR-8 ovarian) was 23.1 µM, the GI50 (NCI-H460 NSCLC) was 2.56 µM and the TGI (NCI-H460 NSCLC) was 6.26 µM. For the same compound, the GI50 (EKVX NSCLC) was 8.12 µM, the TGI (EKVX NSCLC) was 20.7 µM and the GI50 (NCI-H23 lung) was 3.39 µM. For the same compound, the TGI (NCI-H23 lung) was 11.4 µM, the GI50 (MDA-MB-468 breast) was 2.13 µM and the TGI (MDA-MB-468 breast) was 4.05 µM. For the same compound, the GI50 (HCT-116 colon) was 3.2 µM, the TGI (HCT-116 colon) was 9.48 µM and the GI50 (LOX IMVI melanoma) was 3.83 µM. For the same compound, the TGI (LOX IMVI melanoma) was 11.3 µM, the GI50 (K-562 leukemia) was 3.37 µM and the TGI (K-562 leukemia) was 10.7 µM. It also gave a GI50 (HCT-15 colon) of 2.83 µM, a TGI (HCT-15 colon) of 8.63 µM and a GI50 (RXF 393 renal) of 2.65 µM. It also gave a TGI (RXF 393 renal) of 5.99 µM, a GI50 (NCI/ADR-RES ovarian) of 2.51 µM and a TGI (NCI/ADR-RES ovarian) of 8.09 µM. The GI50 (RPMI-8226 leukemia) was 1.61 µM, the TGI (RPMI-8226 leukemia) was 3.22 µM and the GI50 (BT-549 breast) was 4.02 µM. It also gave a TGI (BT-549 breast) of 12.4 µM, a GI50 (A549 NSCLC) of 9.71 µM and a TGI (A549 NSCLC) of 22 µM. The GI50 (IGROV1 ovarian) was 3.71 µM, the TGI (IGROV1 ovarian) was 14.4 µM and the GI50 (OVCAR-4 ovarian) was 2.74 µM. For the same compound, the TGI (OVCAR-4 ovarian) was 12.5 µM, the GI50 (NCI-H322M lung) was 31.3 µM and the TGI (NCI-H322M lung) was greater than 100 µM. For the same compound, the GI50 (UACC-257 melanoma) was 7.33 µM, the TGI (UACC-257 melanoma) was 29.1 µM and the GI50 (SNB-75 CNS) was 2.55 µM. The TGI (SNB-75 CNS) was 7.92 µM, the GI50 (CAKI-1 renal) was 5.18 µM and the TGI (CAKI-1 renal) was 18.1 µM.
